How the values were obtained:
[1] = biological target: T1, TDP-43 protein (Homo sapiens, UniProt Q13148); experiment: TDP-43 aggregation inhibition in TDP-43-BiFC cell model (Forskolin-induced); type: cell-based; conditions: for inhibition at 3 µM: read-out: TDP-43 protein aggregation inhibitory effect: Aggregation inhibitory effect (%) (@3 uM)
T1 construct: BiFC fluorescent-protein fragments (two complementary halves); expressed in transfected cells
Outline: (§1)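 Forskolin (30 µM) co-treated with compound (screen 3 and 10 µM; dose-response 0.003–10 µM) for 48 h. BiFC fluorescence normalised to Forskolin-only (100% aggregation) minus untreated; viability from Hoechst-stained nuclei count vs Forskolin-only. IC50 by nonlinear regression.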

[2] = test system: TDP-43 BiFC cells; experiment: Cell viability (stained nuclei count) in TDP-43-BiFC cells; type: cell-based; conditions: Forskolin-only group = 100%
Outline: as §1

[3] = Liver microsomal stability, human; type: in vitro ADME; conditions: 1 µM compound; 0.5 mg/mL microsomes; NADPH; 30 minutes at 37°C
Description: Liver microsomal stability by the compounds prepared according to Examples 1 to 46 was confirmed. Specifically, four types of liver microsomes (human, dog, rat, and mouse each at 0.5 mg/mL), 0.1 M phosphate buffer solution (pH 7.4), and the compounds at 1 µM concentration were added and pre-incubated at 37°C for 5 minutes, and then NADPH generation system solution was added and incubated at 37°C for an additional 30 minutes. Thereafter, an acetonitrile solution containing an internal standard (chloropropamide) was added to terminate the reaction, and after centrifugation for 5 minutes (14,000 rpm, 4°C), the supernatant was injected into an LC-MS/MS system to analyze the substrate drug, thereby evaluating the metabolic stability of 8 compounds.
The amount of remaining substrate through the reaction was analyzed using a Shimadzu Nexera XR system and TSQ vantage (Thermo). A Kinetex XB-C18 (2.1 × 100 mm, 2.6 µm, particle size; Phenomenex, USA) was used as the HPLC column, and (A) distilled water containing 0.1% formic acid and (B) acetonitrile containing 0.1% formic acid were used as mobile phases. Analyst software (version 1.6.3) and Xcalibur (version 1.6.1) were used for data analysis. The calculated results are shown in Table 5 below: Liver microsomal stability data of novel compounds from […] (human, rat, and mouse).

[4] = biological target: T2, CYP2C9 (Homo sapiens, UniProt P11712); experiment: CYP isoenzyme activity inhibition in human liver microsomes, CYP2C9; type: in vitro ADME; conditions: 10 µM compound; human liver microsomes 0.25 mg/mL; relative to control without compound
T2 construct: human liver microsomes (0.25 mg/mL); from tissue; host or cells: human liver microsomes
T2 sequence (P11712 whole entry): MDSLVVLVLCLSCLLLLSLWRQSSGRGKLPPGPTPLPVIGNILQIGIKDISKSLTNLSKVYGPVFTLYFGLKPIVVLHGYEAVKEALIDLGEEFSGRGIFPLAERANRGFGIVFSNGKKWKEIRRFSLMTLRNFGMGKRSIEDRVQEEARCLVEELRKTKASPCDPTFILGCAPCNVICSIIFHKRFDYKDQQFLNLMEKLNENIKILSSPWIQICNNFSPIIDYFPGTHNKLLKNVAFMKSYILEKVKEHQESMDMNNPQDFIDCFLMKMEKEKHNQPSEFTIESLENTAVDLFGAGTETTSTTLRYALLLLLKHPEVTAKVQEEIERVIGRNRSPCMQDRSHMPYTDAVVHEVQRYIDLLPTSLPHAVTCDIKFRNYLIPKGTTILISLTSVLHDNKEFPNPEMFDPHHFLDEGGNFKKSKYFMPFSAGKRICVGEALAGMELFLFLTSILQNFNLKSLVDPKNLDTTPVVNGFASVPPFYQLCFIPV
Description: (§2) The CYP isoenzyme activity inhibitory effect by the compounds prepared according to Examples 1 to 46 was confirmed. Specifically, human liver microsomes (0.25 mg/mL), 0.1 M phosphate buffer solution (pH 7.4), a substrate drug cocktail of five drug metabolizing enzymes (Phenacetin 50 µM, Diclofenac 10 µM, S-mephenytoin 100 µM, Dextromethorphan 5 µM, and Midazolam 2.5 µM), and the compounds were added at concentrations of 0 or 10 µM, respectively, and pre-incubated at 37°C for 5 minutes, and then NADPH generation system solution was added and incubated at 37°C for an additional 15 minutes. Thereafter, an acetonitrile solution containing an internal standard (Terfenadine) was added to terminate the reaction, and after centrifugation for 5 minutes (14,000 rpm, 4°C), the supernatant was injected into an LC-MS/MS system to simultaneously analyze the metabolites of the substrate drugs, thereby evaluating the drug metabolizing enzyme inhibitory activity.
(§3) The metabolites of each CYP isoenzyme marker drug generated through the reaction were analyzed using a Shimadzu Nexera XR system and TSQ vantage (Thermo). A Kinetex C18 (2.1 × 100 mm, 2.6 µm, particle size; Phenomenex, USA) was used as the HPLC column, and (A) distilled water containing 0.1% formic acid and (B) acetonitrile containing 0.1% formic acid were used as mobile phases, and a gradient program as shown in Table 6 below was applied.
(§4) The generated metabolites were quantified using MRM (Multiple Reaction Monitoring) quantitative mode, and Xcalibur (version 1.6.1) was used for data analysis. To show the CYP isoenzyme activity inhibitory effect of the novel compounds prepared according to the Examples of the disclosure, the % activity of CYP isoenzymes relative to the control group without compound addition is shown in Table 6 below. Additionally, to confirm the difference in effect according to substituents, Comparative Compounds 1 and 5, which are two compounds that share a similar parent nucleus structure with Compounds 1 to 46 of the disclosure while Cy is substituted with aromatic heteroaryl instead of saturated heterocyclyl, were selected as comparative compounds and their activities are shown together.

[5] = biological target: T3, CYP2C19 (Homo sapiens, UniProt P33261); experiment: CYP isoenzyme activity inhibition in human liver microsomes, CYP2C19; type: in vitro ADME; conditions: 10 µM compound; human liver microsomes 0.25 mg/mL; relative to control without compound
T3 construct: human liver microsomes (0.25 mg/mL); from tissue; host or cells: human liver microsomes
T3 sequence (P33261 whole entry): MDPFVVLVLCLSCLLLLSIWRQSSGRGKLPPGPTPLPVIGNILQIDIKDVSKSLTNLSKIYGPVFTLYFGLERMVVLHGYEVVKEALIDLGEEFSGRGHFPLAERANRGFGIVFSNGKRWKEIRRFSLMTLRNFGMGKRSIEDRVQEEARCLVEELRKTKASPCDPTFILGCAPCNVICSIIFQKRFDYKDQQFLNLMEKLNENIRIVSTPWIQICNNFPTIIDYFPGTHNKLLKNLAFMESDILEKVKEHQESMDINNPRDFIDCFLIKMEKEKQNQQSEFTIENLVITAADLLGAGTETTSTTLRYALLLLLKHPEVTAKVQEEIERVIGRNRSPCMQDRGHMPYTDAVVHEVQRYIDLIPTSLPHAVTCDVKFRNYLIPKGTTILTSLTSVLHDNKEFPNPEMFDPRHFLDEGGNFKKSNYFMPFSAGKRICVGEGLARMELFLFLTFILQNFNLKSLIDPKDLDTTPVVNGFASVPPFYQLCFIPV
Description: as §2, §3, §4

[6] = biological target: T4, CYP2D6 (Homo sapiens, UniProt P10635); experiment: CYP isoenzyme activity inhibition in human liver microsomes, CYP2D6; type: in vitro ADME; conditions: 10 µM compound; human liver microsomes 0.25 mg/mL; relative to control without compound
T4 construct: human liver microsomes (0.25 mg/mL); from tissue; host or cells: human liver microsomes
T4 sequence (P10635 whole entry): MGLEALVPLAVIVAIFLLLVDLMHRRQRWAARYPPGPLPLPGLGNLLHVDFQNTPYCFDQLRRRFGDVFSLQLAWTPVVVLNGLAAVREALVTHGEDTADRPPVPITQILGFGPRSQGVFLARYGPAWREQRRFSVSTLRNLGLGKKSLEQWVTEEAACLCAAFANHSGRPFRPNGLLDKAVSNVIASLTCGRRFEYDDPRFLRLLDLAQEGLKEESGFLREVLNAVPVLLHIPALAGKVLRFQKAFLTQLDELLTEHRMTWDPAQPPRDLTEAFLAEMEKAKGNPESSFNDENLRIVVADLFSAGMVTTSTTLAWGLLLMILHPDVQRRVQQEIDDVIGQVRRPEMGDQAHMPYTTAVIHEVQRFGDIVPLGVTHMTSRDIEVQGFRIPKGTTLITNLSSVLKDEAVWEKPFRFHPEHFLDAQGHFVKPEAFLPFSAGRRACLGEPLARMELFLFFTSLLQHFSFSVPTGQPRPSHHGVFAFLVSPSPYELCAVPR
Description: as §2, §3, §4

T1 sequence (Q13148 whole entry, the tested form may be a part): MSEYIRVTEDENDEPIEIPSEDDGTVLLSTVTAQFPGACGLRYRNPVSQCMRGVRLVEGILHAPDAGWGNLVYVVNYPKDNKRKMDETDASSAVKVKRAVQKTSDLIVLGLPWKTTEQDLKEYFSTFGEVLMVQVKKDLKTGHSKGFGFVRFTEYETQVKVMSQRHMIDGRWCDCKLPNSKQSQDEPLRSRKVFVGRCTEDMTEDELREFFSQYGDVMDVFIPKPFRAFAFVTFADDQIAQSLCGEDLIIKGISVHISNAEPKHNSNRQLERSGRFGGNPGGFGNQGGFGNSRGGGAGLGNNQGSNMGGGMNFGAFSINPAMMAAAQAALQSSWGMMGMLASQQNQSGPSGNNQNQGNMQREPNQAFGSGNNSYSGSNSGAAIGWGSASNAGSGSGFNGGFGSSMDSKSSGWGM

Compound	inhibition at 3 µM [1]	Cell viability (%) (@ 3 uM) [2]	Human microsomes (% remaining) [3]	CYP2C9 (% activity) [4]	CYP2C19 (% activity) [5]	CYP2D6 (% activity) [6]	IC50 [1]
N#CC(C#N)=NNc1ccc2nc(N3C4CCC3COC4)sc2c1 [Compound 11, (2-(3-oxa-8-azabicyclo[3.2.1]octan-8-yl)benzo[d]thiazol-6-yl)carbonohydrazonoyl dicyanide]	100%	80.9%	81.3 % remaining	70.2 % activity	80.3 % activity	98.6 % activity	–
CC1CN(c2nc3ccc(NN=C(C#N)C#N)cc3s2)CCO1 (stereo not drawn) [Compound 12, (2-(2-methylmorpholino)benzo[d]thiazol-6-yl)carbonohydrazonoyl dicyanide]	100%	73.0%	62.7 % remaining	65.1 % activity	84.8 % activity	94.8 % activity	–
CC1COCCN1c1nc2ccc(NN=C(C#N)C#N)cc2s1 (stereo not drawn) [Compound 13, (2-(3-methylmorpholino)benzo[d]thiazol-6-yl)carbonohydrazonoyl dicyanide]	100%	63.6%	79.9 % remaining	75 % activity	83.3 % activity	> 100 % activity	–
CC1CN(c2nc3ccc(NN=C(C#N)C#N)cc3o2)CCO1 (stereo not drawn) [Compound 15, (2-(2-methylmorpholino)benzo[d]oxazol-6-yl)carbonohydrazonoyl dicyanide]	97.5%	105.2%	> 100 % remaining	88.6 % activity	87.9 % activity	> 100 % activity	–
CC1COCCN1c1nc2ccc(NN=C(C#N)C#N)cc2o1 (stereo not drawn) [Compound 16, (2-(3-methylmorpholino)benzo[d]oxazol-6-yl)carbonohydrazonoyl dicyanide]	100%	97.8%	79.8 % remaining	87 % activity	> 100 % activity	92.1 % activity	–
COC1CCN(c2nc3ccc(NN=C(C#N)C#N)cc3o2)CC1 [Compound 17, (2-(4-methoxypiperidin-1-yl)benzo[d]oxazol-6-yl)carbonohydrazonoyl dicyanide]	100%	96.9%	16.7 % remaining	73.8 % activity	90 % activity	89.5 % activity	–
CC1CN(c2nc3ccc(NN=C(C#N)C#N)cc3o2)CC(C)O1 (stereo not drawn) [Compound 18, (2-(2,6-dimethylmorpholino)benzo[d]oxazol-6-yl)carbonohydrazonoyl dicyanide]	98.6%	102.1%	95.8 % remaining	> 100 % activity	100 % activity	97 % activity	–
N#CC(C#N)=NNc1ccc2nc(N3C4CCC3COC4)oc2c1 [Compound 20, (2-(3-oxa-8-azabicyclo[3.2.1]octan-8-yl)benzo[d]oxazol-6-yl)carbonohydrazonoyl dicyanide]	91.7%	75.4%	> 100 % remaining	48 % activity	51.8 % activity	57.5 % activity	140 nM
N#CC(C#N)=NNc1ccc2nc(N3CC4CCC(C3)O4)sc2c1 [Compound 23, (2-(8-oxa-3-azabicyclo[3.2.1]octan-3-yl)benzo[d]thiazol-6-yl)carbonohydrazonoyl dicyanide]	99.2%	81.1%	85.6 % remaining	68.5 % activity	69.6 % activity	71.5 % activity	107 nM
N#CC(C#N)=NNc1ccc2nc(N3CC4CCC(C3)O4)oc2c1 [Compound 26, (2-(8-oxa-3-azabicyclo[3.2.1]octan-3-yl)benzo[d]oxazol-6-yl)carbonohydrazonoyl dicyanide]	94.8%	76.1%	96.3 % remaining	53.3 % activity	82.1 % activity	82.1 % activity	248 nM
CC(C)N1CCN(c2nc3ccc(NN=C(C#N)C#N)cc3o2)CC1 [Compound 28, (2-(4-isopropylpiperazin-1-yl)benzo[d]oxazol-6-yl)carbonohydrazonoyl dicyanide]	57.1%	113.4%	11.7 % remaining	48.5 % activity	90.8 % activity	78 % activity	–
CC(=O)N1CCN(c2nc3ccc(NN=C(C#N)C#N)cc3s2)CC1 [Compound 30, (2-(4-acetylpiperazin-1-yl)benzo[d]thiazol-6-yl)carbonohydrazonoyl dicyanide]	88%	83.1%	> 100 % remaining	86.2 % activity	86.2 % activity	88.9 % activity	146 nM
CC(=O)N1CCN(c2nc3ccc(NN=C(C#N)C#N)cc3o2)CC1 [Compound 31, (2-(4-acetylpiperazin-1-yl)benzo[d]oxazol-6-yl)carbonohydrazonoyl dicyanide]	41.4%	82.7%	99.9 % remaining	88.8 % activity	90.8 % activity	93.3 % activity	–
CCn1c(N2CCOCC2)nc2ccc(NN=C(C#N)C#N)cc21 [Compound 32, (1-ethyl-2-morpholino-1H-benzo[d]imidazol-6-yl)carbonohydrazonoyl dicyanide]	95.4%	59.7%	95.5 % remaining	65.1 % activity	77.1 % activity	92.1 % activity	99 nM
CCn1c(N2CCOCC2)nc2cc(NN=C(C#N)C#N)ccc21 [Compound 33, (1-ethyl-2-morpholino-1H-benzo[d]imidazol-5-yl)carbonohydrazonoyl dicyanide]	93.9%	55.0%	94.9 % remaining	28.8 % activity	78.6 % activity	97.9 % activity	124 nM

From patent EP4737445A1, “NOVEL SATURATED HETEROCYCLE-SUBSTITUTED HETEROARYL-CARBONOHYDRAZONOYL DICYANIDE COMPOUND AND USE THEREOF” (Korea Institute of Science and Technology, priority 2023, dated 2025)
